Data reported in PubChem BioAssay (NCI).
Several values for one entry are separate records, joined by “and”; a condition that tells them apart may be missing. Equal entries are not always repeated.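 Interpolation was linear, between the two tested concentrations surrounding the appropriate level; five concentrations were tested over 48 hours in 96-well plates. GI50 is the concentration that inhibits growth by half. TGI is the concentration that stops growth completely.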

What was measured:
Assay in all cases: inhibition of tumour cell growth, NCI panel, 48 h
[1] = tested on: SNB-19 CNS
[2] = tested on: HOP-92 NSCLC
[3] = tested on: SR leukemia
[4] = tested on: BT-549 breast
[5] = tested on: MALME-3M melanoma
[6] = tested on: SK-MEL-28 melanoma
[7] = tested on: A549 NSCLC
[8] = tested on: SF-539 CNS
[9] = tested on: ACHN renal
[10] = tested on: CCRF-CEM leukemia
[11] = tested on: MOLT-4 leukemia
[12] = tested on: PC-3 prostate
[13] = tested on: 786-0 renal
[14] = tested on: SW-620 colon
[15] = tested on: HL-60(TB) leukemia
[16] = tested on: SK-MEL-5 melanoma
[17] = tested on: OVCAR-5 ovarian
[18] = tested on: HOP-62 NSCLC
[19] = tested on: RPMI-8226 leukemia
[20] = tested on: MDA-MB-468 breast
[21] = tested on: NCI-H23 lung
[22] = tested on: NCI-H522 lung
[23] = tested on: M14 melanoma
[24] = tested on: HCC-2998 colon
[25] = tested on: CAKI-1 renal
[26] = tested on: HCT-15 colon
[27] = tested on: NCI-H460 lung
[28] = tested on: MDA-MB-435
[29] = tested on: HT29 colon
[30] = tested on: NCI/ADR-RES ovarian
[31] = tested on: SK-OV-3 ovarian
[32] = tested on: A498 renal
[33] = tested on: HS 578T breast
[34] = tested on: UO-31 renal
[35] = tested on: HCT-116 colon
[36] = tested on: COLO 205 colon
[37] = tested on: U251 CNS
[38] = tested on: T-47D breast
[39] = tested on: DU-145 prostate
[40] = tested on: NCI-H226 lung
[41] = tested on: TK-10 renal
[42] = tested on: LOX IMVI melanoma
[43] = tested on: OVCAR-4 ovarian
[44] = tested on: SNB-75 CNS
[45] = tested on: SK-MEL-2 melanoma
[46] = tested on: KM12 colon
[47] = tested on: SF-295 CNS
[48] = tested on: MCF7 breast
[49] = tested on: EKVX NSCLC
[50] = tested on: SF-268 CNS
[51] = tested on: UACC-257 melanoma
[52] = tested on: UACC-62 melanoma
[53] = tested on: K-562 leukemia
[54] = tested on: SN12C renal
[55] = tested on: RXF 393 renal
[56] = tested on: OVCAR-3 ovarian
[57] = tested on: OVCAR-8 ovarian
[58] = tested on: IGROV1 ovarian
[59] = tested on: MDA-MB-231 breast

SMILES: O=C(c1cc2cc(OCCCN3CCC3)ccc2[nH]1)N1C[C@@H](CCl)c2c1cc(OCc1ccccc1)c1ccccc21
- GI50 [1]: 0.687 µM and 0.333 µM
- TGI [1]: 2.33 µM and 2.4 µM
- GI50 [2]: 1.16 µM and 0.504 µM
- TGI [2]: 3.28 µM and 1.83 µM
- GI50 [3]: 0.0974 µM and 0.0439 µM
- TGI [3]: 5.01 µM
- GI50 [4]: 0.384 µM and 0.53 µM
- TGI [4]: 1.72 µM and 2.19 µM
- GI50 [5]: 0.481 µM and 0.276 µM
- TGI [5]: 1.79 µM and 0.557 µM
- GI50 [6]: 0.507 µM and 0.329 µM
- TGI [6]: 1.8 µM and 0.749 µM
- GI50 [7]: 0.157 µM and 0.161 µM
- TGI [7]: 0.626 µM and 2.54 µM
- GI50 [8]: 0.225 µM and 0.295 µM
- TGI [8]: 1 µM and 0.663 µM
- GI50 [9]: 0.0785 µM and 0.0346 µM
- TGI [9]: 0.248 µM and 0.0967 µM
- GI50 [10]: 0.845 µM and 0.408 µM
- TGI [10]: 7.75 µM and 17.5 µM
- GI50 [11]: 0.339 µM and 0.272 µM
- TGI [11]: 4.56 µM and 3.87 µM
- GI50 [12]: 0.294 µM and 0.367 µM
- TGI [12]: 2.63 µM and 4.6 µM
- GI50 [13]: 0.293 µM and 0.266 µM
- TGI [13]: 0.913 µM and 1.71 µM
- GI50 [14]: 0.234 µM and 0.258 µM
- TGI [14]: 1.56 µM and 1.28 µM
- GI50 [15]: 1.22 µM and 0.442 µM
- TGI [15]: 3.56 µM and 4.05 µM
- GI50 [16]: 0.322 µM and 0.272 µM
- TGI [16]: 1.3 µM and 0.537 µM
- GI50 [17]: 0.302 µM and 0.345 µM
- TGI [17]: 1.04 µM and 1.06 µM
- GI50 [18]: 0.214 µM and 0.139 µM
- TGI [18]: 0.694 µM and 0.647 µM
- GI50 [19]: 0.941 µM and 0.496 µM
- TGI [19]: 9.53 µM and 9.5 µM
- GI50 [20]: 0.0438 µM
- TGI [20]: 0.13 µM
- GI50 [21]: 0.186 µM and 0.073 µM
- TGI [21]: 0.619 µM and 0.318 µM
- GI50 [22]: 1.23 µM and 0.384 µM
- TGI [22]: 2.87 µM and 0.929 µM
- GI50 [23]: 0.283 µM and 0.212 µM
- TGI [23]: 1.21 µM and 0.653 µM
- GI50 [24]: 0.255 µM and 0.319 µM
- TGI [24]: 1.23 µM and 0.66 µM
- GI50 [25]: 0.289 µM and 0.193 µM
- TGI [25]: 1.5 µM and 1.68 µM
- GI50 [26]: 0.171 µM and 0.134 µM
- TGI [26]: 0.838 µM and 0.787 µM
- GI50 [27]: 0.121 µM and 0.0171 µM
- TGI [27]: 0.469 µM and 1.12 µM
- GI50 [28]: 1.05 µM and 0.331 µM
- TGI [28]: 2.27 µM and 0.739 µM
- GI50 [29]: 0.285 µM and 0.273 µM
- TGI [29]: 1.35 µM and 2 µM
- GI50 [30]: 0.252 µM
- TGI [30]: 1.4 µM
- GI50 [31]: 0.401 µM and 0.453 µM
- TGI [31]: 1.64 µM and 1.72 µM
- GI50 [32]: 0.235 µM
- TGI [32]: 0.633 µM
- GI50 [33]: 1.25 µM and 0.746 µM
- TGI [33]: 3.98 µM and 5.99 µM
- GI50 [34]: 0.171 µM and 0.264 µM
- TGI [34]: 0.449 µM and 0.681 µM
- GI50 [35]: 0.147 µM and 0.637 µM
- TGI [35]: 0.443 µM and 2.46 µM
- GI50 [36]: 0.629 µM and 0.28 µM
- TGI [36]: 1.99 µM and 0.644 µM
- GI50 [37]: 0.247 µM and 0.0612 µM
- TGI [37]: 1.03 µM and 2.39 µM
- GI50 [38]: 0.375 µM and 0.202 µM
- TGI [38]: 1.69 µM and 1.04 µM
- GI50 [39]: 0.254 µM and 0.082 µM
- TGI [39]: 1.25 µM and 2.92 µM
- GI50 [40]: 1.21 µM and 0.211 µM
- TGI [40]: 4.34 µM and 0.631 µM
- GI50 [41]: 1.53 µM and 0.562 µM
- TGI [41]: 3 µM and 1.42 µM
- GI50 [42]: 0.132 µM and 0.0564 µM
- TGI [42]: 0.427 µM and 0.451 µM
- GI50 [43]: 1.13 µM and 0.536 µM
- TGI [43]: 3.01 µM and 1.69 µM
- GI50 [44]: 1.02 µM
- TGI [44]: 2.21 µM
- GI50 [45]: 1.09 µM and 0.374 µM
- TGI [45]: 2.32 µM and 0.659 µM
- GI50 [46]: 0.731 µM and 0.813 µM
- TGI [46]: 2.22 µM and 10.1 µM
- GI50 [47]: 0.154 µM and 0.0461 µM
- TGI [47]: 0.447 µM and 0.23 µM
- GI50 [48]: 0.0105 µM and 0.00322 µM
- TGI [48]: 0.324 µM and 0.851 µM
- GI50 [49]: 0.271 µM and 0.371 µM
- TGI [49]: 1.37 µM and 0.956 µM
- GI50 [50]: 0.437 µM and 0.332 µM
- TGI [50]: 2.42 µM and 2.04 µM
- GI50 [51]: 0.792 µM
- TGI [51]: 2.3 µM
- GI50 [52]: 0.145 µM and 0.062 µM
- TGI [52]: 0.481 µM and 0.325 µM
- GI50 [53]: 0.302 µM and 0.251 µM
- TGI [53]: 19.8 µM
- GI50 [54]: 0.345 µM and 0.357 µM
- TGI [54]: 1.5 µM and 2.11 µM
- GI50 [55]: 0.362 µM and 0.234 µM
- TGI [55]: 1.63 µM and 0.509 µM
- GI50 [56]: 1.13 µM and 0.497 µM
- TGI [56]: 2.62 µM and 1.61 µM
- GI50 [57]: 0.274 µM and 0.242 µM
- TGI [57]: 1.44 µM and 1.53 µM
- GI50 [58]: 0.31 µM and 0.189 µM
- TGI [58]: 1.47 µM and 1.33 µM
- GI50 [59]: 0.691 µM and 0.544 µM
- TGI [59]: 2.1 µM and 1.36 µM
